Experimental data from US6737383B1, “Herbicidal oxadiazolidines” (priority 1999, dated 2004).

Tests used:
[1] = system: velvetleaf; assay: Test A velvetleaf; format: in vivo, Abutilon theophrasti; details: 0 to 10 scale where 0 is no effect and 10 is complete control
Summary of the method: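 Ratings came from visual comparison with untreated plants about eleven days after treatment, scored 0 for no effect through 10 for complete control. Both soil-drench preemergence and runoff-spray postemergence applications were made at the same time.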

[2] = system: hairy beggarticks; assay: Test C postemergence hairy beggarticks; format: in vivo, Bidens pilosa; details: 0 to 100 scale, 0 no effect, 100 complete control
Description: (§1) Compounds evaluated in this test were formulated in a non-phytotoxic solvent mixture which included a surfactant and applied to plants that were grown for various periods of time before treatment (postemergence application). A mixture of sandy loam soil and greenhouse potting mix in a 60:40 ratio was used for the postemergence test.
(§2) Plantings of these crops and weed species were adjusted to produce plants of appropriate size for the postemergence test. All plant species were grown using normal greenhouse practices. Crop and weed species include arrowleaf sida (Sida rhombifolia), barnyardgrass (Echinochloa crus-galli), cocklebur (Xanthium strumarium), common ragweed (Ambrosia elatior), corn (Zea mays), cotton (Gossypium hirsutum), eastern black nightshade (Solanum ptycanthum), fall panicum (Panicum dichotomiflorum), field bindweed (Convolvulus arvensis), giant foxtail (Setaria faberii), hairy beggarticks (Bidens pilosa), ivyleaf morningglory (Ipomoea hederacea), johnsongrass (Sorghum halepense), ladysthumb smartweed (Polygonum persicaria), lambsquarters (Chenopodium album), large crabgrass (Digitaria sanguinalis), purple nutsedge (Cyperus rotundus), redroot pigweed (Amaranthus retroflexus), soybean (Glycine max), surinam grass (Brachiaria decumbens), velvetleaf (Abutilon theophrasti) and wild poinsettia (Euphorbia heterophylla).
(§3) Treated plants and untreated controls were maintained in a greenhouse for approximately 14, to 21 days, after which all treated plants were compared to untreated controls and visually evaluated. Plant response ratings, summarized in Table C, were based upon a 0 to 100 scale where 0 was no effect and 100 was complete control. A dash response (−) means no test result.

[3] = system: purple nutsedge; assay: Test C postemergence purple nutsedge; format: in vivo, Cyperus rotundus; details: 0 to 100 scale, 0 no effect, 100 complete control
Summary of the method: (§4)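 Soil: sandy loam/potting mix 60:40. Treatment: postemergence, solvent + surfactant formulation. Readout: visual control score 0–100 vs untreated at ~14–21 days.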

[4] = system: eastern black nightshade; assay: Test C postemergence eastern black nightshade; format: in vivo, Solanum ptycanthum; details: 0 to 100 scale, 0 no effect, 100 complete control
Summary of the method: as §4

[5] = system: fall panicum; assay: Test C postemergence fall panicum; format: in vivo, Panicum dichotomiflorum; details: 0 to 100 scale, 0 no effect, 100 complete control
Summary of the method: as §4

[6] = system: corn; assay: Test C postemergence corn; format: in vivo, Zea mays; details: 0 to 100 scale, 0 no effect, 100 complete control
Summary of the method: as §4

[7] = system: surinam grass; assay: Test C postemergence surinam grass; format: in vivo, Brachiaria decumbens; details: 0 to 100 scale, 0 no effect, 100 complete control
Description: as §1, §2, §3

[8] = system: ivyleaf morningglory; assay: Test C postemergence ivyleaf morningglory; format: in vivo, Ipomoea hederacea; details: 0 to 100 scale, 0 no effect, 100 complete control
Description: as §1, §2, §3

[9] = system: large crabgrass; assay: Test C postemergence large crabgrass; format: in vivo, Digitaria sanguinalis; details: 0 to 100 scale, 0 no effect, 100 complete control
Description: as §1, §2, §3

[10] = system: Green foxtail; assay: Test D green foxtail; format: in vivo; details: Rate 64 g/ha, Postemergence; 0 to 100 scale, 0 no injury, 100 complete control
[11] = system: common pursiane; assay: Test D common purslane; format: in vivo, Portulaca oleracea; details: Rate 64 g/ha, Postemergence; 0 to 100 scale, 0 no injury, 100 complete control
[12] = system: Johnson grass; assay: Test D Johnson grass; format: in vivo, Sorghum halepense; details: Rate 64 g/ha, Postemergence; 0 to 100 scale, 0 no injury, 100 complete control
[13] = system: dallisgrass; assay: Test D dallisgrass; format: in vivo, Paspalum dilatatum; details: Rate 64 g/ha, Postemergence; 0 to 100 scale, 0 no injury, 100 complete control
[14] = system: guineagrass; assay: Test D guineagrass; format: in vivo, Panicum maximum; details: Rate 64 g/ha, Postemergence; 0 to 100 scale, 0 no injury, 100 complete control
[15] = system: Alexandergrass; assay: Test D Alexandergrass; format: in vivo, Brachiaria plantaginea; details: Rate 64 g/ha, Postemergence; 0 to 100 scale, 0 no injury, 100 complete control
[16] = system: tall mallow; assay: Test D tall mallow; format: in vivo, Malva sylvestris; details: Rate 64 g/ha, Postemergence; 0 to 100 scale, 0 no injury, 100 complete control
[17] = system: surinam grass; assay: Test D surinam grass; format: in vivo, Brachiaria decumbens; details: Rate 64 g/ha, Postemergence; 0 to 100 scale, 0 no injury, 100 complete control
[18] = system: Spanishneedles; assay: Test D Spanishneedles; format: in vivo, Bidens bipinnata; details: Rate 64 g/ha, Postemergence; 0 to 100 scale, 0 no injury, 100 complete control
[19] = system: pitted morningglory; assay: Test D pitted morningglory; format: in vivo, Ipomoea lacunosa; details: Rate 64 g/ha, Postemergence; 0 to 100 scale, 0 no injury, 100 complete control

Row | SMILES | Plant response rating, Velvetleaf ([1]; Postemergence, Rate 1000 g/ha) | Plant response rating, Velvetleaf ([1]; Pre-emergence, Rate 2000 g/ha) | Plant response rating H. beggarticks ([2]; Rate 560 g/ha) | Plant response rating H. beggarticks ([2]; Rate 1120 g/ha) | Plant response rating, Purple nutsedge ([3]; Rate 140 g/ha) | Plant response rating, Purple nutsedge ([3]; Rate 280 g/ha) | Plant response rating, Purple nutsedge ([3]; Rate 560 g/ha) | Plant response rating, Purple nutsedge ([3]; Rate 1120 g/ha) | Plant response rating E. blacknightsh ([4]; Rate 140 g/ha) | Plant response rating E. blacknightsh ([4]; Rate 280 g/ha) | Plant response rating E. blacknightsh ([4]; Rate 1120 g/ha) | Plant response rating Fall panicum ([5]; Rate 140 g/ha) | Plant response rating Fall panicum ([5]; Rate 280 g/ha) | Plant response rating Fall panicum ([5]; Rate 560 g/ha) | Plant response rating Fall panicum ([5]; Rate 1120 g/ha) | Plant response rating, Corn ([6]; Rate 140 g/ha) | Plant response rating, Corn ([6]; Rate 280 g/ha) | Plant response rating, Corn ([6]; Rate 560 g/ha) | Plant response rating, Corn ([6]; Rate 1120 g/ha) | Plant response rating, Surinam grass ([7]; Rate 140 g/ha) | other results
1 | Cc1ccccc1-n1c(=O)on(C(=O)N(C2=CCOCC2)C(C)C)c1=O [Compound 10] | 4 | 2 |  |  |  |  |  |  |  |  |  |  |  |  |  |  |  |  |  |  | 
2 | C=CCn1c(=O)on(C(=O)N(c2ccccc2)C(C)C)c1=O [Compound 93] |  |  | 5 | 70 | 0 | 0 | 0 | 10 | 10 | 40 | 85 | 0 | 80 | 90 | 90 | 0 | 0 | 0 | 45 | 0 | Plant response rating H. beggarticks ([2]; Rate 280 g/ha): 0; Plant response rating, Surinam grass ([7]; Rate 280 g/ha): 45; Plant response rating, Surinam grass ([7]; Rate 560 g/ha): 50; Plant response rating, Surinam grass ([7]; Rate 1120 g/ha): 85; Plant response rating I. morningglory ([8]; Rate 140 g/ha): 5; Plant response rating I. morningglory ([8]; Rate 280 g/ha): 10; Plant response rating I. morningglory ([8]; Rate 560 g/ha): 10; Plant response rating I. morningglory ([8]; Rate 1120 g/ha): 70; Plant response rating, Large crabgrass ([9]; Rate 140 g/ha): 0; Plant response rating, Large crabgrass ([9]; Rate 280 g/ha): 30; Plant response rating, Large crabgrass ([9]; Rate 560 g/ha): 50; Plant response rating, Large crabgrass ([9]; Rate 1120 g/ha): 95
3 | CC(C)N(C(=O)n1oc(=O)n(Cc2cccs2)c1=O)c1ccccc1 [Compound 103] |  |  | 0 | 5 | 0 | 0 | 0 | 0 | 0 | 0 | 0 | 0 | 0 | 0 | 30 | 0 | 0 | 0 | 0 | 0 | Plant response rating H. beggarticks ([2]; Rate 140 g/ha): 0; Plant response rating H. beggarticks ([2]; Rate 280 g/ha): 0; Plant response rating E. blacknightsh ([4]; Rate 560 g/ha): 0; Plant response rating, Surinam grass ([7]; Rate 280 g/ha): 0; Plant response rating, Surinam grass ([7]; Rate 560 g/ha): 0; Plant response rating, Surinam grass ([7]; Rate 1120 g/ha): 5; Plant response rating I. morningglory ([8]; Rate 140 g/ha): 0; Plant response rating I. morningglory ([8]; Rate 280 g/ha): 0; Plant response rating I. morningglory ([8]; Rate 560 g/ha): 0; Plant response rating I. morningglory ([8]; Rate 1120 g/ha): 10; Plant response rating, Large crabgrass ([9]; Rate 140 g/ha): 0; Plant response rating, Large crabgrass ([9]; Rate 280 g/ha): 0; Plant response rating, Large crabgrass ([9]; Rate 560 g/ha): 0; Plant response rating, Large crabgrass ([9]; Rate 1120 g/ha): 10
4 | CC(C)N(C(=O)n1oc(=O)n(Cc2cccs2)c1=O)c1ccc(F)cc1 [Compound 80] |  |  | 10 | 10 | 0 | 0 | 0 | 0 | 0 | 5 | 60 | 0 | 0 | 0 | 10 | 0 | 0 | 0 | 0 | 0 | Plant response rating H. beggarticks ([2]; Rate 140 g/ha): 0; Plant response rating E. blacknightsh ([4]; Rate 560 g/ha): 50; Plant response rating, Surinam grass ([7]; Rate 280 g/ha): 0; Plant response rating, Surinam grass ([7]; Rate 560 g/ha): 0; Plant response rating, Surinam grass ([7]; Rate 1120 g/ha): 10; Plant response rating I. morningglory ([8]; Rate 140 g/ha): 0; Plant response rating I. morningglory ([8]; Rate 280 g/ha): 10; Plant response rating I. morningglory ([8]; Rate 560 g/ha): 30; Plant response rating I. morningglory ([8]; Rate 1120 g/ha): 50; Plant response rating, Large crabgrass ([9]; Rate 140 g/ha): 0; Plant response rating, Large crabgrass ([9]; Rate 280 g/ha): 0; Plant response rating, Large crabgrass ([9]; Rate 560 g/ha): 10; Plant response rating, Large crabgrass ([9]; Rate 1120 g/ha): 10
5 | CC(C)N(C(=O)n1oc(=O)n(C2CCCCC2C(F)(F)F)c1=O)c1ccc(F)cc1 (stereo not shown) [Compound 99] | 2 | 3 |  |  |  |  |  |  |  |  |  |  |  |  |  |  |  |  |  |  | 
6 | CCN(CC)C(=O)n1oc(=O)n(-c2ccc(OC)cc2)c1=O [Compound 1] | 0 | 0 |  |  |  |  |  |  |  |  |  |  |  |  |  |  |  |  |  |  | 
7 | CC(C)Oc1cc(-n2c(=O)on(C(=O)N(c3ccc(F)cc3)C(C)C)c2=O)c(Cl)cc1Cl [Compound 43] | 0 | 0 |  |  |  |  |  |  |  |  |  |  |  |  |  |  |  |  |  |  | 
8 | CC(C)Cn1c(=O)on(C(=O)N(c2ccc(F)cc2)C(C)C)c1=O [Compound 169] |  |  |  |  |  |  |  |  |  |  |  |  |  |  |  |  |  |  |  |  | Green foxtail plant response rating [10]: 100; Plant response rating, C. purslane [11]: 0; Plant response rating, Johnsongrass [12]: 0; Plant response rating, Dallisgrass [13]: 90; Guineagrass plant response rating [14]: 0; Plant response rating, Guineagrass [14]: 100; Plant response rating, Alexandergrass [15]: 65; Tall Mallow plant response rating [16]: 0; Surinam grass plant response rating [17]: 65; Spanishneedles plant response rating [18]: 0; Plant response rating, P. morninglory [19]: 0
